Test results published in BigSolDB 2.1.

NC(=O)C[C@H](N)C(=O)O.O
solubility (mole fraction)
Details | 278.15 K | 283.15 K | 288.15 K | 293.15 K | 298.15 K | 303.15 K | 308.15 K | 313.15 K | 318.15 K | 323.15 K
in acetonitrile | 5.98e-06 | 8.11e-06 | 1.09e-05 | 1.44e-05 | 1.89e-05 | 2.49e-05 | 3.2e-05 | 4.11e-05 | 5.24e-05 | 6.64e-05
in ethanol | 1.32e-05 | 1.77e-05 | 2.36e-05 | 3.11e-05 | 4.06e-05 | 5.25e-05 | 6.73e-05 | 8.57e-05 | 0.000108 | 0.000136
in ethyl acetate | 1.25e-05 | 1.73e-05 | 2.29e-05 | 2.99e-05 | 3.89e-05 | 5.01e-05 | 6.39e-05 | 8.21e-05 | 0.000102 | 0.000129
in isobutanol | 1.11e-05 | 1.49e-05 | 1.97e-05 | 2.59e-05 | 3.38e-05 | 4.36e-05 | 5.58e-05 | 6.98e-05 | 8.97e-05 | 0.000114
in isopropanol | 9.67e-06 | 1.26e-05 | 1.65e-05 | 2.22e-05 | 2.91e-05 | 3.81e-05 | 4.96e-05 | 6.19e-05 | 8.17e-05 | 0.000104
in methanol | 1.54e-05 | 2.04e-05 | 2.7e-05 | 3.52e-05 | 4.56e-05 | 5.86e-05 | 7.42e-05 | 9.4e-05 | 0.000118 | 0.000147
in methyl acetate | 1.66e-05 | 2.23e-05 | 2.91e-05 | 3.78e-05 | 4.89e-05 | 6.28e-05 | 7.98e-05 | 0.000101 | 0.000127 | 0.000158
in n-butanol | 1.07e-05 | 1.43e-05 | 1.9e-05 | 2.5e-05 | 3.26e-05 | 4.2e-05 | 5.38e-05 | 6.84e-05 | 8.62e-05 | 0.000105
in n-butyl acetate | 1.57e-05 | 2.09e-05 | 2.7e-05 | 3.49e-05 | 4.54e-05 | 5.76e-05 | 7.24e-05 | 9.16e-05 | 0.000114 | 0.000142
in n-propanol | 1.07e-05 | 1.45e-05 | 1.94e-05 | 2.57e-05 | 3.37e-05 | 4.4e-05 | 5.68e-05 | 7.28e-05 | 9.28e-05 | 0.000117
in n-propyl acetate | 1.63e-05 | 2.14e-05 | 2.81e-05 | 3.66e-05 | 4.76e-05 | 6.11e-05 | 7.78e-05 | 9.84e-05 | 0.000121 | 0.000154
in water | 0.0014 | 0.00178 | 0.00227 | 0.0028 | 0.00344 | 0.00422 | 0.00518 | 0.00627 | 0.0076 | 0.00914
